The test concerns L1210 leukemia ip in BDF1 mice, survival T/C. Kind of test: NCI In Vivo Anticancer Drug Screen. Data for tumor model L1210 Leukemia (intraperitoneal) in B6D2F1 (BDF1) mice. Conditions: endpoint: mean survival time, higher = longer survival. In a few lines:
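Antitumor effect is assessed in tumor-bearing animals. Survival in the compound arm is compared with a vehicle-dosed control arm and expressed as their quotient.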

Setting [1] is: dose: 100.0 mg/kg/injection, schedule: Q04DX003 (ip), vehicle: saline with Tween-80.
The mark [2] stands for this setting: dose: 100.0 mg/kg/injection, schedule: Q04DX003 (ip), vehicle: saline.
The mark [3] stands for this setting: dose: 200.0 mg/kg/injection, schedule: Q04DX003 (ip), vehicle: saline.
Setting [4] is: dose: 400.0 mg/kg/injection, schedule: Q04DX003 (ip), vehicle: saline.
Setting [5] is: dose: 100.0 mg/kg/injection, schedule: Q01DX009 (ip), vehicle: saline with Tween-80.
The mark [6] stands for this setting: dose: 200.0 mg/kg/injection, schedule: Q01DX009 (ip), vehicle: saline with Tween-80.
Setting [7] is: dose: 400.0 mg/kg/injection, schedule: Q04DX002 (ip), vehicle: Klucel (hydroxypropylcellulose) (HPC).

“And” between values parts separate entries of the source, which are not always exact repeats. Equal entries are not always repeated. Inconclusive results and toxic doses are left out.

In the case of `NC(=O)CC(N)C(N)=O` (configuration not stated), the T/C (dose: 100.0 mg/kg/injection, schedule: Q04DX002 (ip), vehicle: saline) is 98 % of control; the T/C (dose: 200.0 mg/kg/injection, schedule: Q04DX002 (ip), vehicle: saline) is 106 % of control; the T/C (dose: 400.0 mg/kg/injection, schedule: Q04DX002 (ip), vehicle: saline) was 109 % of control.

Regarding `[O]=[Sb]([OH])([OH])[c]1ccccc1`, the T/C reads like this: (dose: 12.5 mg/kg/injection, schedule: Q04DX002 (ip), vehicle: saline with Tween-80) 100 % of control; (dose: 25.0 mg/kg/injection, schedule: Q04DX002 (ip), vehicle: saline with Tween-80) 100 % of control; (dose: 50.0 mg/kg/injection, schedule: Q01DX009 (sc), vehicle: olive oil, sesame oil, peanut oil) 97 % of control; (dose: 50.0 mg/kg/injection, schedule: Q04DX002 (ip), vehicle: saline with Tween-80) 103 % of control; (dose: 100.0 mg/kg/injection, schedule: Q01DX009 (sc), vehicle: olive oil, sesame oil, peanut oil) 95 % of control; (dose: 100.0 mg/kg/injection, schedule: Q04DX002 (ip), vehicle: saline with Tween-80) 90 % of control. For the same compound, the T/C reads like this: (dose: 100.0 mg/kg/injection, schedule: Q04DX003 (sc), vehicle: olive oil, sesame oil, peanut oil) 97 % of control; (dose: 200.0 mg/kg/injection, schedule: Q04DX003 (sc), vehicle: olive oil, sesame oil, peanut oil) 93 % of control.

Regarding `COc1cccc2c1C(=O)CC2`, the T/C (dose: 25.0 mg/kg/injection, schedule: Q01DX009 (ip), vehicle: acetone) is 101 % of control; the T/C (dose: 50.0 mg/kg/injection, schedule: Q01DX009 (ip), vehicle: acetone) was 106 % of control; the T/C (dose: 100.0 mg/kg/injection, schedule: Q01DX009 (ip), vehicle: acetone) is 103 % of control; the T/C under setting [1] was 87 % of control.

Turning to `COC(=O)C(C)C(C)(O)C(C)(C)C` (configuration not stated), the T/C under setting [1] is 101 % of control.

With `N=C(N)S/C=C(/F)C(F)(F)CBr`, the T/C (dose: 50.0 mg/kg/injection, schedule: Q01DX001 (ip), vehicle: saline) was 95 % of control; the T/C (dose: 100.0 mg/kg/injection, schedule: Q01DX001 (ip), vehicle: saline) is 101 % of control; the T/C (dose: 200.0 mg/kg/injection, schedule: Q01DX001 (ip), vehicle: saline) is 113 % of control; the T/C (dose: 400.0 mg/kg/injection, schedule: Q01DX001 (ip), vehicle: saline) is 101 % of control.

As to `Cc1nc2c(Cl)cc(Cl)cc2s1`, the T/C (dose: 100.0 mg/kg/injection, schedule: Q01DX001 (ip), vehicle: acetone) was 100 % of control; the T/C under setting [2] is 95 % of control; the T/C (dose: 200.0 mg/kg/injection, schedule: Q01DX001 (ip), vehicle: acetone) is 106 % of control; the T/C under setting [3] was 90 % of control; the T/C (dose: 400.0 mg/kg/injection, schedule: Q01DX001 (ip), vehicle: acetone) was 102 % of control; the T/C under setting [4] was 92 % of control.

With `CC[C@](C)(O)C(=O)O[C@H]1C(=O)O[C@@H]2C[C@H]3C(C)=CC(=O)[C@@H](O)[C@]3(C)[C@H]3[C@@]4(O)OC[C@]32[C@@H]1[C@@H](C)[C@H]4O`, the T/C reads like this: (dose: 0.2 mg/kg/injection, schedule: Q01DX009 (ip), vehicle: saline) 98 % of control; (dose: 0.3 mg/kg/injection, schedule: Q01DX009 (ip), vehicle: saline) 100 % of control; (dose: 0.44 mg/kg/injection, schedule: Q01DX009 (ip), vehicle: saline) 92 % of control; (dose: 0.66 mg/kg/injection, schedule: Q01DX009 (ip), vehicle: saline) 92 % of control; (dose: 1.0 mg/kg/injection, schedule: Q01DX009 (ip), vehicle: saline) 102 % of control.

Regarding `CCOC(=O)c1c(NC(C)=O)sc2c1CCCC2`, the T/C (dose: 50.0 mg/kg/injection, schedule: Q01DX009 (ip), vehicle: saline with Tween-80) is 108 % of control; the T/C under setting [5] was 108 % of control; the T/C under setting [6] is 95 % of control.

On to `O=C1C(N2CCOCC2)=C(c2ccccc2)c2ccccc21`, for which the T/C reads like this: (dose: 7.3 mg/kg/injection, schedule: Q01DX009 (ip), vehicle: other) 94 % of control and 103 % of control; (dose: 11.0 mg/kg/injection, schedule: Q01DX009 (ip), vehicle: other) 96 % of control and 100 % of control; (dose: 12.5 mg/kg/injection, schedule: Q01DX009 (ip), vehicle: other) 350 % of control; (dose: 16.5 mg/kg/injection, schedule: Q01DX009 (ip), vehicle: other) 96 % of control and 100 % of control; (dose: 37.5 mg/kg/injection, schedule: Q01DX009 (ip), vehicle: other) 96 % of control and 101 % of control; (dose: 50.0 mg/kg/injection, schedule: Q01DX009 (ip), vehicle: other) 98 % of control. In addition, the T/C is 88 % of control (dose: 100.0 mg/kg/injection, schedule: Q01DX009 (ip), vehicle: other) and 93 % of control (dose: 200.0 mg/kg/injection, schedule: Q01DX009 (ip), vehicle: other).

Consider `CCCSC(CCc1cnc(N)nc1C)SCCC`, for which the T/C under setting [7] is 94 % of control.

Consider `NC(=O)CC(NC(=O)OCc1ccccc1)C(N)=O` (configuration not stated), for which the T/C was 93 % of control (dose: 100.0 mg/kg/injection, schedule: Q04DX003 (ip), vehicle: Klucel (hydroxypropylcellulose) (HPC)); 87 % of control (dose: 200.0 mg/kg/injection, schedule: Q04DX003 (ip), vehicle: Klucel (hydroxypropylcellulose) (HPC)); 90 % of control (dose: 400.0 mg/kg/injection, schedule: Q04DX003 (ip), vehicle: Klucel (hydroxypropylcellulose) (HPC)).

Turning to `NNC(=O)CNc1cccc(I)c1`, the T/C reads like this: (dose: 100.0 mg/kg/injection, schedule: Q04DX002 (ip), vehicle: Klucel (hydroxypropylcellulose) (HPC)) 102 % of control; (dose: 200.0 mg/kg/injection, schedule: Q04DX002 (ip), vehicle: Klucel (hydroxypropylcellulose) (HPC)) 95 % of control; under setting [7], 109 % of control.

Turning to `S=c1nc(-c2ccccc2)c(-c2ccccc2)n[nH]1`, the T/C was 100 % of control under setting [2], 98 % of control under setting [3] and 98 % of control under setting [4].

Regarding `CCOC(=O)C(Cc1ccccc1Cl)(NC(C)=O)C(=O)OCC`, the T/C was 93 % of control under setting [5]; 100 % of control under setting [6]; 104 % of control (dose: 400.0 mg/kg/injection, schedule: Q01DX009 (ip), vehicle: saline with Tween-80).

As to `Cc1ccccc1N=Nc1c(O)n(-c2ccc(I)cc2)c(=S)n(-c2ccccc2)c1=O`, the T/C is 103 % of control (dose: 37.5 mg/kg/injection, schedule: Q01DX001 (ip), vehicle: Klucel (hydroxypropylcellulose) (HPC)); 113 % of control (dose: 75.0 mg/kg/injection, schedule: Q01DX001 (ip), vehicle: Klucel (hydroxypropylcellulose) (HPC)); 105 % of control (dose: 150.0 mg/kg/injection, schedule: Q01DX001 (ip), vehicle: Klucel (hydroxypropylcellulose) (HPC)).

As for `CC1CCC2(C(=O)O)CCC3(C)C(=CCC4C5(C)CC(O)C(O)C(C)(C(=O)O)C5CCC43C)C2C1(C)O` (configuration not stated), the T/C was 94 % of control (dose: 100.0 mg/kg/injection, schedule: Q01DX001 (ip), vehicle: alkali diluted with saline); 97 % of control (dose: 100.0 mg/kg/injection, schedule: Q01DX001 (ip), vehicle: saline with Tween-80); 100 % of control (dose: 200.0 mg/kg/injection, schedule: Q01DX001 (ip), vehicle: alkali diluted with saline); 89 % of control (dose: 200.0 mg/kg/injection, schedule: Q01DX001 (ip), vehicle: saline with Tween-80).

Take `C=CCc1ccc(O)c(OC)c1`: the T/C was 108 % of control (dose: 100.0 mg/kg/injection, schedule: Q04DX002 (ip), vehicle: saline + alcohol); 101 % of control (dose: 200.0 mg/kg/injection, schedule: Q04DX002 (ip), vehicle: saline + alcohol); 97 % of control (dose: 400.0 mg/kg/injection, schedule: Q04DX002 (ip), vehicle: saline + alcohol).

For `ClCCN(CCCl)c1ccc(-c2csc(COc3ccccc3)n2)cc1`, the T/C is 102 % of control (dose: 100.0 mg/kg/injection, schedule: Q01DX001 (ip), vehicle: carboxymethylcellulose (CMC)); 96 % of control (dose: 200.0 mg/kg/injection, schedule: Q01DX001 (ip), vehicle: carboxymethylcellulose (CMC)); 91 % of control (dose: 400.0 mg/kg/injection, schedule: Q01DX001 (ip), vehicle: carboxymethylcellulose (CMC)).

For `C=C[CH2][Sn]([CH2]C=C)([c]1ccccc1)[c]1ccccc1`, the T/C (dose: 1.56 mg/kg/injection, schedule: Q01DX009 (ip), vehicle: saline with Tween-80) is 97 % of control; the T/C (dose: 3.13 mg/kg/injection, schedule: Q01DX009 (ip), vehicle: saline with Tween-80) is 92 % of control; the T/C (dose: 6.25 mg/kg/injection, schedule: Q01DX009 (ip), vehicle: saline with Tween-80) was 86 % of control.

As to `CCCCCC[N+](C)(C)CCOC(=O)C1C2CC3OC(=O)C1C3C2` (configuration not stated), the T/C under setting [2] is 97 % of control.

Source of the values: PubChem BioAssay AID248 (DTP/NCI, 2004).
